Experiments:
[1] = test system: cyclin D1, cdc2, p21, p27, GADD45β, xIAP, Bfl-1/A1, Bcl-2, BclX1, cFLIP, survivin, c-myc, COX2; assay: Western blot of cell cycle, anti-apoptotic, proliferative and metastatic gene products in U937 cells; assay type: cell-based, human; conditions: 10 μM
Method: Western blot analysis. Thirty to fifty micrograms of cytoplasmic, nuclear or whole cell protein was resolved on 10% SDS-PAGE gel, transferred to a nitrocellulose membrane, blocked with 5% non-fat milk, and probed with specific antibodies as per manufacturer's recommended protocol. The blots were washed, exposed to HRP-conjugated secondary antibodies for 1 h, and detected by ECL reagent (Amersham Pharmacia Biotechnology, Piscataway, N.J.). The bands were quantitated using a Personal Densitometer Scan v1.30 using Imagequant software version 3.3 (Molecular Dynamics).

STAT3 = assay: Constitutive STAT3 phosphorylation in U266 cells, Western blot; assay type: cell-based, human
Method: Western blot. For detection of STAT proteins, whole-cell extracts were prepared by lysing the guggulsterone-treated cells in lysis buffer (20 mM Tris, pH 7.4, 250 mM NaCl, 2 mM EDTA, pH 8.0, 0.1% Triton −X100, 0.01 mg/ml aprotinin, 0.005 mg/ml leupeptin, 0.4 mM PMSF, and 4 mM NaVO4). Lysates were then spun at 14,000 rpm for 10 min to remove insoluble material, and resolved on a 7.5% gel. After electrophoresis, the proteins were electrotransferred to a nitrocellulose membrane, blocked with 5% nonfat milk, and probed with anti-STAT antibodies (1:1000) overnight at 4° C. The blot was washed, exposed to HRP-conjugated secondary antibodies for 1 h, and finally examined by chemiluminescence (ECL, Amersham Pharmacia Biotech. Arlington Heights, Ill.).

IKK = assay: RANKL-induced IKK activity, IKK assay; assay type: cell-based, mouse; conditions: RAW 264.7
p65 = assay: TNF-induced phosphorylation and nuclear translocation of p65; assay type: cell-based, human; conditions: H1299, 50 μM, 4 hours, 0.1 nM TNF
Method: Western Blot Analysis: To determine the effect of guggulsterone on TNF-dependent IκBα phosphorylation, IκBα degradation, p65 translocation and p65 phosphorylation, cytoplasmic extracts were prepared as previously described (Majumdar et al., 2001) from H1299 (2×10^6/ml) pretreated with 50 μM guggulsterone for 4 h and then exposed to 0.1 nM TNF for various times. Thirty micrograms of cytoplasmic protein was resolved on 10% SDS-PAGE gel, transferred to a nitrocellulose membrane, blocked with 5% non-fat milk, and probed with specific antibody against IκBα, posphorylated IκBα, p65 and phosphorylated p65. To determine the expression of cyclin D1, COX-2, MMP-9, clAP-1, xlAP, TRAF1, Bcl-2, Bfl-1, cFLIP, and survivin, whole-cell extracts were prepared from treated cells (2×10^6 cells in 2 ml medium), 30-50 μg protein was resolved on SDS-PAGE gel and probed by Western blot with specific antibodies as per manufacturer's recommended protocol. The blots were washed, exposed to HRP-conjugated secondary antibodies for 1 hour, and finally detected by ECL reagent (Amersham Pharmacia Biotech.). The bands were quantitated using a Personal Densitometer Scan v1.30 using IMAGEQUANT™ software version 3.3 (Molecular Dynamics).
Immunolocalization of NF-κB p65: The effect of guggulsterone on […] nuclear translocation of p65 was examined using an immunocytochemical method as described previously (Bharti et al., 2003). Stained slides were mounted with mounting medium (Sigma Chemical) and analyzed under an epifluorescence microscope (Labophot-2; Nikon, Tokyo, Japan). Images were captured using a PHOTOMETRICS COOLSNAP CF™ color camera (Nikon, Lewisville, Tex.) and METAMORPH™ version 4.6.5 software (Universal Imaging, Downingtown, Pa.).

U937 cells = assay: Annexin V and TUNEL assays; assay type: cell-based, human
Method: Annexin V Assay. One of the early indicators of apoptosis is the rapid translocation and accumulation of the membrane phospholipid phosphatidylserine from the cell's cytoplasmic interface to the extracellular surface. This loss of membrane asymmetry can be detected using the binding properties of annexin V. To detect apoptosis, annexin V antibody conjugated with the fluorescent dye FITC was used. Briefly, 1×10^6 cells were pretreated with 10 μM guggulsterone for various time points and then subjected to annexin V staining. Cells were washed, stained with FITC-conjugated anti-annexin V antibody, and then analyzed with a flow cytometer (FACSCalibur; BD Biosciences). TUNEL Assay. Apoptosis was also assessed by the terminal deoxynucleotidyl transferase-mediated deoxyuridine triphosphate nick end-labeling (TUNEL) method, which examines DNA strand breaks that occur during apoptosis, using an in situ cell death detection reagent (Roche Molecular Biochemicals, Mannheim, Germany). Assays were performed using 5×10^5 cells that were incubated with 10 μM guggulsterone for 24 h and then fixed with 4% paraformaldehyde, and permeabilized with 0.1% Triton-X 100 in 0.1% sodium citrate. After being washed, the cells were incubated with reaction mixture for 60 min at 37° C. Stained cells were analyzed with a flow cytometer (FACSCalibur).

CC=C1C(=O)C[C@H]2[C@@H]3CCC4=CC(=O)CC[C@]4(C)[C@H]3CC[C@]12C [guggulsterone, 4,17(20)-pregnadiene-3,16-dione]
gene products involved in antiapoptosis (xIAP, Bfl-1/A1, Bcl-2, BclX1, cFLIP, survivin), proliferation (c-myc) and metastasis (COX2) [1]: inhibited the gene products involved in antiapoptosis | levels of cyclin D1 and cdc2 [1]: decrease in the levels of cyclin D1 and cdc2 | levels of p21, p27 and GADD45β [1]: increase in the levels of cyclin dependent kinase inhibitor p21, p27 | overall expression of STAT3 protein (STAT3): did not alter the overall expression of STAT3 protein | earliest time at which inhibition of constitutive STAT3 phosphorylation is observed (STAT3; 25 μM): 4 h | lowest concentration at which inhibition of constitutive STAT3 phosphorylation is observed (STAT3; 4 h): 25 µM | constitutively active (phosphorylated) STAT3 (STAT3; time- and dose-dependent): inhibited the constitutively active STAT3 | RANKL-induced IKK activity (phosphorylation of GST-IκBα) (IKK; 50 μM, 4 h pre-incubation, 10 nM RANKL): could not phosphorylate GST-IκBα upon RANKL treatment | expression of IKK-α and IKK-β (IKK; Western blot): did not alter the expression of IKK-α and IKK-β | TNF-induced nuclear translocation of p65, Western blot (p65): abolished the TNF-induced nuclear translocation of p65 | TNF-induced nuclear translocation of p65, immunocytochemistry (p65): abrogated the p65 translocation | TNF-induced phosphorylation of p65 (p65; Western blot): suppressed p65 phosphorylation almost completely | number of Annexin V and TUNEL positive cells (U937 cells): increased the number of Annexin V and TUNEL positive cells

From patent US20060019907A1, “Guggulsterone: an inhibitor of nuclear factor - kappaB and IkappaBalpha kinase activation and uses thereof” (Research Development Foundation, priority 2004, published 2006)
